Laboratory results as given in patent US20100130476A1, “COMPOUNDS THAT INDUCE PANCREATIC BETA-CELL EXPANSION” (The Scripps Research Institute, priority 2008, published 2010).
Entries after “also recorded” stand apart in the source; their conditions may differ.

What was measured:
[1] = test system: growth-arrested R7T1 β cells; experiment: R7T1 β-cell proliferation, CellTiter Glo assay (high-throughput screen and follow-up); format: cell-based, mouse
Description: (§1) R7T1 β-cells are expanded in growth medium (DMEM with 15% horse serum and 2.5% FBS) in the presence of 10 μg/ml doxycycline. (3TC-tet cells are expanded in growth medium (DMEM with 15% horse serum and 2.5% FBS) in the absence of 10 μg/ml doxycycline. Hamster HIT-T15 β-cells are grown in F12 medium with 15% horse serum and 2.5% FBS. MIN6 cells are cultured in DMEM with 15% FBS. HEK293 cells are grown according to instructions from ATCC (http://www.atcc.org/).
R7T1 β-cells are expanded in large quantities in growth medium in the presence of 10 μg/ml doxycycline and then are growth arrested by removal of doxycycline for one week. For the primary screen, growth-arrested cells are plated onto 384- or 1536-well plates in growth medium without doxycycline at a density of 4000 cells/well in 384-well plate or 1000 cells/well in 1536-well plate in an automated high-throughput screening platform (designated as Day 0). […] For data analysis, the median of a plate is calculated and the activity of each well is the signal/median of the plate. A signal in any well over 1.5 of the median is regarded as a primary hit. For the reconfirmation screen, growth-arrested R7T1 cells are plated onto 384-well plates and screened against all primary hits in quadruplicate. To eliminate tetracycline mimetics among all reconfirmed primary hits, βTC-tet cells are plated onto 384-well plates at a density of 2000 cells/well in growth medium in the presence of 10 μg/ml doxycycline, and 1.25 μM compound is added after overnight incubation and refreshed 4 days later. The effects on β-cell replication are then determined at Day 8 using the CellTiter Glo assay system. Any compound that increases the readings more than 1.5 fold is regarded as a hit.
SV40 T antigen (TAg) oncoprotein under the control of the Tet-On system was used to immortalize mouse β cells so that these engineered β cells proliferate when TAg is induced in the presence of tetracycline (Tet), but undergo growth arrest upon withdrawal of Tet (see, Efrat S, et al., Proc. Natl. Acad. Sci. USA 92:3576-3580 (1995); Fleischer N, et al, Diabetes 47:1419-1425 (1998); and Milo-Landesman D, et al., Cell Transplant. 10:645-650 (2001)). Although not a true mimic of in vivo quiescent β cells, this system should allow us to identify small molecules that are able to induce reentry into cell cycle and proliferation of growth-arrested cells. Indeed, these engineered cells express high levels of β-cell signature markers, including insulin 1, insulin 2, and Pdx1, and are able to secrete insulin and restore and maintain euglycemia in STZ-treated diabetic mice when induced to growth arrest and transplanted (see, Efrat S, et al., supra; and Milo-Landesman D, et al., supra). A total of ≈850,000 compounds were screened with an automated high-throughput screening platform for their ability to induce the proliferation of growth-arrested β cells in either a 384- or 1,536-well plate format. In the primary screen, proliferation was assayed by using a luminescent assay measuring intracellular ATP content, which is directly proportional to viable cell number (see, Materials and Methods). To rule out any possible Tet mimetics that induce the proliferation of β cells through the induction of SV40 TAg expression, the Tet-Off immortalized β-cell line βTC-Tet was used for a counterscreen.

[2] = test system: Super (8×) TOPFlash reporter; experiment: Super (8×) TOPFlash Wnt reporter in HEK293 cells; format: cell-based
Description: (A) Chemical structures of 5-thiophene pyrimidines. […] Relative luminescence unit (RLU) was measured by CellTiter-Glo assay after 7-day incubation of growth-arrested R7T1 β cells with 1a, which was added at day 0 and refreshed at day 4; experiments were performed in quadruplicate. All data in this paper are presented as mean±SD, unless otherwise specified. (C) Dose-dependent effects of 1a on the activation of Super (8×) TOPFlash reporter. HEK293 cells transfected with Super (8×) TOPFlash reporter were treated with 1a at the indicated concentrations 24 h after transfection. Luciferase activity was measured 48 h after compound treatment. (D and E) The proliferative effect of 1a on rat primary β cells. (D) After incubation for 72 h with 2 μM 1a, replicating β cells were identified by double-immunofluorescence staining by using anti-C-peptide antibody to mark β cells (green) and antibody against Ki-67, a proliferation marker (red). Nuclear DNA was stained with DAPI (blue). (Scale bar, 10 μm.) (E) The percentage of Ki-67-positive cells of all C-peptide-positive cells, which corresponds to the fraction of replicating β cells. The number of proliferating primary β cells increased after incubation for 72 h in the presence of 2 μM 1a compared with DMSO control: 1a at 2 μM increases the replicating β cells ≈2-fold. (F) Compound 1a stimulates the translocation of β-catenin into the nucleus. Nuclear β-catenin accumulation (green arrows) was increased in 10 μM 1a-treated HEK293 cells; in DMSO-treated control cells, β-catenin staining is weak and appears to concentrate at the cell surface. […] CellTiter-Glo activity was measured 7 days after compound treatment.

[3] = test system: rat primary β cells; experiment: Primary β-cell proliferation assay, rat (C-peptide/Ki-67 double staining); format: cell-based
Description: (§2) Islets are isolated by the standard Liberase digestion method from the pancreata of adult Sprague-Dawley rats (200-250 g) (Liberase III; Roche Applied Science) and cultured in RPMI medium with 10% FBS. Briefly, 6 ml of ice-cold Liberase solution (Roche Applied Science) is injected into the pancreas via the common bile duct. After dissection, the pancreas is incubated for 35 minutes at 37° C. and then further dissociated by repeated pipetting using a 10-ml pipette. Islets are purified by Histopaque-1.077 (Sigma) density gradient centrifugation and are manually picked using a stereomicroscope. […] Human islets are obtained through the Juvenile Diabetes Research Foundation Islet Distribution Program by Islet Cell Resource Center in Minnesota, USA. The purity and viability of human islets are reported to be 30-70% and 50-70%, respectively. Human islets are cultured in CMRL medium containing 10% FBS.
(§3) Islets or single suspension cells are fixed with 4% formalin solution (Sigma) and stained by standard immuno-fluorescence techniques for C-peptide (anti-human C-peptide antibody from Raybiotech, Inc., and anti-rat C-peptide antibody from Linco, Inc.) and Ki-67 (anti-Ki-67 antibody from Abcam), a marker of proliferating cells. Nuclear DNA is stained with DAPI (Molecular Probes). At least 30,000 C-peptide positive cells are counted in each experiment, performed in triplicate. The images are taken on a Nikon Eclipse TE300 microscope with 200× magnification. Proliferating C-peptide/Ki-67 double positive β-cells are counted manually.

[4] = test system: human primary β cells; experiment: Primary β-cell proliferation assay, human (C-peptide/Ki-67 double staining); format: cell-based
Description: as §2, §3

[5] = test system: HIT-T15 β cells; experiment: HIT-T15 β-cell proliferation (BrdU incorporation assay); format: cell-based, Hamster
Description: as §1

[6] = test system: MIN6 cells; experiment: MIN6 β-cell proliferation (BrdU incorporation assay); format: cell-based
Description: as §1

[7] = test system: MIN6 cells; experiment: Calcium influx assay (fluo-3, FLIPR); format: cell-based; details: MIN6 β cells
Description: Calcium Influx Assay.Measurement of intracellular Ca^2+ ([Ca^2+]i) was performed by using a fluorescence laser-imaging plate reader (FLIPR; Molecular Devices). Briefly, MIN6 cells cultured in 384-well plates were incubated for 1 h with 4 μM fluo-3/AM (Molecular Probes) and 0.04% pluronic acid in physiological Locke's buffer (154 mM NaCl, 5.6 mM KCl, 1.0 mM MgCl2, 2.3 mM CaCl2, 8.6 mM Hepes, 5.6 mM glucose, and 0.1 mM glycine [pH 7.4]). After incubation, MIN6 cells were washed with Locke's buffer by using an automated cell washer to remove extracellular dye. MIN6 cells were treated with compounds at the indicated concentrations. These cells were excited at 488 nm and Ca^2+-bound fluo-3 emission was recorded at 500-560 nm.

[8] = test system: growth-arrested R7T1 β cells; experiment: Microarray analysis of gene expression; format: cell-based, mouse
Description: RNA extraction from R7T1 β-cells treated with compounds at the indicated time points is performed using RNeasy kits (Qiagen). The integrity and concentration of RNA is determined by microfluidic analysis on an Experion instrument (BioRad). Standard Affymetrix single amplification is performed using 5 μg total RNA. Standard Affymetrix protocols are used to process Affymetrix MOE430—2 microarrays (Affymetrix). All CEL file images are processed as a single group using gcRMA.

[9] = test system: Ras; experiment: Ras activation analysis (GST-Raf1 RBD pull-down); format: cell-based, mouse; details: growth-arrested R7T1 β cells; for Ras-GTP level / Ras signaling (in words): 0.5 μM
Description: Ras-GTP levels are detected using the Active Ras Pull-Down and Detection Kit, following the manufacturer's instructions (Pierce). Briefly, growth-arrested R7T1 β-cells are treated with 0.5 μM of a compound of the invention for an indicated time. Cells are then washed twice with ice-cold phosphate-buffered saline (PBS) and lysed in Lysis/Binding/Wash Buffer containing protease inhibitor cocktail [Roche]. Lysates (500 μg) are clarified by centrifugation and supernatants are incubated with 80 μg of GST-Raf1-RBD fusion protein precoupled to glutathione-Sepharose beads. After incubation for 1 hour at 4° C., beads are washed three times in Lysis/Binding/Wash Buffer, resuspended in Laemmli buffer and boiled. Samples are analyzed by SDS-PAGE (4-20%) followed by transfer to nitrocellulose membrane and then are probed with anti-Ras antibody. Blots are developed using the enhanced ECL system.

## CC1=C(CC(=O)O)c2cc(F)ccc2/C1=C\c1ccc([S+](C)[O-])cc1 (stereo not drawn) [Sulindac]
[1]; 60 μM Sulindac with 10 μM 1a, CellTiter-Glo after 7 days
  effect on 1a-stimulated β-cell proliferation: abolished
[2]
  effect on 1a-stimulated Wnt activation: abolished

## COc1ccc(CCNc2nc(N3CCCC3CO)nc3ccccc23)cc1 (stereo not drawn) [Example 9, (1-(4-(4-methoxyphenethylamino)quinazolin-2-yl)pyrrolidin-2-yl)methanol]
[1]; high-throughput screen, CellTiter Glo at Day 8, screen concentration 1.25 μM
  expansion of the pancreatic β-cell population: 3 fold

## COC(=O)C1=C(C)NC(C)=C([N+](=O)[O-])[C@H]1c1ccccc1C(F)(F)F [Example 2a, (S)-methyl 2,6-dimethyl-5-nitro-4-(2-(trifluoromethyl)phenyl)-1,4-dihydropyridine-3-carboxylate]
[1]
  duration of R7T1 proliferation in the presence of the compound: up to 3 weeks
  time to stop of proliferation after removal of the compound: ≤ 1 week
[1]; CellTiter-Glo, 7 days
  effect on growth-arrested R7T1 β cells (in words): β-cell proliferation
[3]; 1 μM, 72 h, compared with DMSO
  increase in replicating primary rat β cells (Ki-67/C-peptide): ≈ 2.5 fold
[3]; 72 hours (3 days), concentration not given
  increase in rat C-peptide/Ki-67 double positive β-cells: 2.5 fold
[4]; 1 μM, 72 h, compared with DMSO
  increase in proliferating human primary β cells: ≈ 1.5 fold
[4]; 72 hours, concentration not given
  increase in human C-peptide/Ki-67 double positive β-cells: 1.5 fold
[4]; human islets, 3 days, 2a 1 μM, Ex-4 5 nM where combined
  number of proliferating human primary β cells (in words): increase the number of proliferating human β cells
[5]
  proliferation of HIT-T15 β cells (in words): increased proliferation
[6]
  proliferation of MIN6 β cells (in words): increased proliferation
[7]; fluo-3, FLIPR
  increase in transient intracellular calcium levels: 10 fold
[7]; fluo-3, FLIPR up to 5 min
  calcium influx (in words): stimulated
[8]; 0.5 μM
  expression of IRS2: 1.7 fold
[8]; 0.5 μM, 24 h
  expression of Ccnd2 (cyclin D2): approximately 1.7 fold
[8]; 2-6 h after treatment
  expression of RasGEFs (RasGRF1, RasGEF1b) (in words): transcriptionally up-regulated; also recorded: activated
[8]; 2a 1 μM, Ex-4 5 nM where combined, 2 h to 24 h
  expression of Ccnd2 (in words): increased; also recorded: up-regulated
[8]; pretreatment versus posttreatment, data not shown
  expression of β-cell signature markers insulin 1, insulin 2, Pdx1: unchanged
[8]; within 30 min, 0.5 μM or 1 μM 2a, Ex-4 5 nM where combined
  expression of immediate-early genes (Fos, Jun, Egr, Ier families): large increase; also recorded: highly induced
[9]
  time of peak Ras-GTP level: 10 min
  Ras-GTP level / Ras signaling (in words): elevated; also recorded: Activation
[9]; listed as (S)-methyl 2,6-dimethyl-5-nitro-4-(2-(trifluoromethyl)phenyl)-1,4-dihydropyridin
  Ras-GTP level / Ras signaling (in words): activates the Ras pathway
